Measurements published in patent US7794795B2, “Hybrid anti-fouling coating compositions and methods for preventing the fouling of surfaces subjected to a marine environment” (The Research Foundation of State University of New York, priority 2003, dated 2010).

Legend:
[1] = Thiol peroxidase activity: oxidation of PhSH with H2O2, stopped-flow; settings: for k0, initial linear increase in absorbance: PhSH 1 × 10^−3 M, H2O2 3.75 × 10^−3 M, catalyst 1 × 10^−5 M, MeOH (5% CH2Cl2; 46% for 22), 276.8 K, 305 nm; for v0 (rel): relative to 23a = 1; for v0, initial rate of oxidation of PhSH: same conditions, k0 corrected for the uncatalyzed reaction
Description: (§1) All stopped-flow experiments were performed on a SX18 Stopped-Flow Spectrometer (Applied Photophysics, Leatherhead, UK). The sample-handling unit was fitted with two drive syringes that are mounted inside a thermostatted-bath compartment, which allowed for variable temperature experimentation. The optical detection cell was set up in the 2-mm pathlength. First- and second-order curve fitting and rate constants used a Marquardt algorithm (Marquardt, J. Soc. Indust Appl. Mathematics, 11:431 et al. (1963), which is hereby incorporated by reference in its entirety) based on the routine Curfit (Bevington, Data Reduction and Error Analysis for the Physical Sciences, McGraw-Hill, New York (1969), which is hereby incorporated by reference in its entirety).
Stock solutions of 2.0×10^−3 M of catalyst in CH2Cl2 and 5.0×10^−2 M PhSH in CH2Cl2 were prepared. These were diluted with MeOH to give a 5% CH2Cl21MeOH solution of 2.0×10^−5 M telluride and 2.0×10^−3 PhSH. A stock solution of 7.50×10^−3 M H2O2 in MeOH was prepared. These two solutions were mixed in the stopped-flow spectrometer to give concentrations of 1.0×10^−5 M telluride, 1.0×10^−3 M PhSH, and 3.75×10^−3 M H2O2 and the increase in absorbance at 305 nm was measured. The concentration of H2O2 in the stock solution was determined from the absorbance at 240 nm (E=43.6 cm^−1 M^−1) (Riley et al., Endocrinology, 128:1749 et al. (1991); Zhao et al., Biochemistry, 40:10832 et al. (2001), which are hereby incorporated by reference in their entirety). The values in Table 1 are the average of 7-10 independent runs (± standard deviation).
In earlier work with dendrimeric organotelluride catalysts for the oxidation of halide salts with H2O2 (Francavilla et al., J. Am. Chem. Soc., 123:57 et al. (2001), which is hereby incorporated by reference in its entirety), a two-phase system of CH2Cl2 and pH-6 buffer was employed, which kept the catalysts and substrate in solution. In order to evaluate the catalysts in a homogeneous system, the method of Tomoda et al. (Iwaoka et al., J. Am. Chem. Soc., 116:2557 et al. (1994); Mugesh et al., J. Am. Chem. Soc., 123:839 et al. (2001), which are hereby incorporated by reference in their entirety) was employed to measure thiol peroxidase activity. In this procedure, thiophenol (PhSH) is oxidized to diphenyl disulfide (PhSSPh) using H2O2 as the oxidant. Catalytic activity was determined by the initial rates for the oxidation of PhSH (1.0×10^−3 M) with H2O2 (3.75×10^−3 M) in MeOH in the presence of a catalyst at a standard concentration of 1.0×10^−5 M.
A 5% CH2Cl2/MeOH solution of catalyst (9, 15, 20, 23, or 24 at 2.0×10^−5M) and PhSH (2.0×10^−3 M) was mixed with an equal volume of a 5% CH2Cl21MeOH solution of H2O2 (7.5×10^−3 M) in a stopped-flow spectrophotometer at 276.8±0.4 K to give final concentrations of […] catalyst, 1.0×10^−3 M PhSH, and 3.75×10^−3M H2O2. The rate of appearance of PhSSPh, with a molar extinction coefficient, ε, of […] at 305 nm (Mugesh et al., J. Am. Chem. Soc., 123:839 et al. (2001), which is hereby incorporated by reference in its entirety), was monitored at 305 nm. The 5% CH2Cl2 was added to keep the tellurides/oxidized tellurides in solution during the course of the reaction. For hexatellurides 22, the percentage of CH2Cl2 was increased to 46% (by volume) in both solutions to keep the dendrimers in solution during the time-course of the analysis.
A slow, uncatalyzed background reaction was observed upon mixing the two solutions in the stopped-flow spectrometer without added catalyst. Values of k0 were corrected for the uncatalyzed background reaction and converted to initial velocities, ν0, in units of […] min^−1 (Table 1). Values of ν0 as a function of the number of catalytic groups is plotted in FIG. 20.

[2] = Oxidation of monotellurides with H2O2, stopped-flow, pseudo first-order; settings: for observed rate constant for oxidation: 1.03×10^−3 M telluride, 1.03×10^−2 M H2O2, 276.8 K, 5% CH2Cl2/MeOH; for second-order rate constant for oxidation: same conditions
Description: as §1
Stock solutions of 2.06×10^−3M telluride and 2.06×10^−2 M H2O2 in 5% CH2Cl2/MeOH were prepared. These two solutions were mixed in the stopped-flow spectrometer to give concentrations of 1.03×10^−3M telluride and 1.03×10^−2 M H2O2 and the increase in absorbance at 325 nm for 23a, 350 nm for 23b, and 352 nm for 24 was measured as a function of time for 7-10 independent runs (1 standard deviation).
The rates of oxidation of monotellurides 23 and 24 were followed in the stopped-flow spectrometer under pseudo first-order conditions. Final concentrations of 1.03×10^−3 M telluride and 1.03×10^−2 M H2O2 at 276.8±0.4 K gave observed rate constants for oxidation of (1.10±0.01)×10^−1 s^−1 for 23a, (3.62±0.02)×10^−1 s^−1 for 23b, and (4.5±0.4)×10^−1 for 24, which correspond to second-order rate constants of 10.7±0.1 M^−1 s^−1 for 23a, 35.1±0.2 M^−1 s^−1 for 23b, and 44±4 M^−1 s^−1 for 24.

Structure (SMILES)	k0, initial linear increase in absorbance [1]	v0 (rel) [1]	v0, initial rate of oxidation of PhSH [1]	observed rate constant for oxidation [2]	second-order rate constant for oxidation [2] [M⁻¹ s⁻¹]
CN(C)c1ccc([Te]CCCOc2cc(CO)cc(OCCC[Te]c3ccc(N(C)C)cc3)c2)cc1 [9b, 3,5-Bis[3-(4-dimethylaminophenyltelluro)propyloxy]benzyl Alcohol]	(1.69 ± 0.05) × 10^−4 ΔA s^−1	3.3	(4.0 ± 0.1) × 10^1 μM min^−1	–	–
OCc1cc(OCCC[Te]c2ccccc2)cc(OCCC[Te]c2ccccc2)c1 [compound 9a, 3,5-Bis[3-(phenyltelluro)propyloxy]benzyl Alcohol]	(8.8 ± 0.5) × 10^−5 ΔA s^−1	1.7	(2.0 ± 0.1) × 10^1 μM min^−1	–	–
OCc1cc(OCc2cc(OCCC[Te]c3ccccc3)cc(OCCC[Te]c3ccccc3)c2)cc(OCc2cc(OCCC[Te]c3ccccc3)cc(OCCC[Te]c3ccccc3)c2)c1 [compound 20a, 3,5-Bis(3,5-bis[3-(phenyltelluro)propyloxy]benzyloxy)benzyl Alcohol]	(1.81 ± 0.05) × 10^−4 ΔA s^−1	3.6	(4.3 ± 0.1) × 10^1 μM min^−1	–	–
CCCCCC[Te]CCCOc1cc(COc2ccc(C(C)(c3ccc(OCc4cc(OCCC[Te]CCCCCC)cc(OCCC[Te]CCCCCC)c4)cc3)c3ccc(OCc4cc(OCCC[Te]CCCCCC)cc(OCCC[Te]CCCCCC)c4)cc3)cc2)cc(OCCC[Te]CCCCCC)c1 [22c, 1,1,1-Tris[4-(3,5-bis[3-(n-hexyltelluro)propyloxy]benzyloxy)phenyl]-ethane]	(1.30 ± 0.01) × 10^−3 ΔA s^−1	26	–	–	–
OCc1cc(OCCC[Te]c2ccccc2)c(OCCC[Te]c2ccccc2)c(OCCC[Te]c2ccccc2)c1 [compound 15a, 3,4,5-Tris[3-(phenyltelluro)propyloxy]benzyl Alcohol]	(1.14 ± 0.02) × 10^−4 ΔA s^−1	2.2	(2.66 ± 0.05) × 10^1 μM min^−1	–	–
CN(C)c1ccc([Te]CCCOc2ccccc2)cc1 [compound 23b, 1-phenoxy-3-[4-(N,N-dimethylamino)phenyltelluro]propane]	(1.06 ± 0.05) × 10^−4 ΔA s^−1	2.1	(2.5 ± 0.1) × 10^1 μM min^−1	(3.62±0.02)×10^−1 s^−1	35.1 ± 0.2
CCCCCC[Te]CCCCCC [compound 24, Di-n-hexyltelluride, reference compound]	(1.53 ± 0.09) × 10^−4 ΔA s^−1	3.0	(3.6 ± 0.2) × 10^1 μM min^−1	(4.5±0.4)×10^−1 s^−1	44 ± 4
CN(C)c1ccc(CCCOc2cc(COc3ccc(C(C)(c4ccc(OCc5cc(OCCCc6ccc(N(C)C)cc6)cc(OCCCc6ccc(N(C)C)cc6)c5)cc4)c4ccc(OCc5cc(OCCCc6ccc(N(C)C)cc6)cc(OCCCc6ccc(N(C)C)cc6)c5)cc4)cc3)cc(OCCCc3ccc(N(C)C)cc3)c2)cc1 [22b, 1,1,1-Tris[4-(3,5-bis[3-(4-N,N-dimethylaminophenyl)propyloxy]benzyloxy)phenyl]ethane]	(5.6 ± 0.1) × 10^−4 ΔA s^−1	11	(1.34 ± 0.02) × 10^2 μM min^−1	–	–
c1ccc(OCCC[Te]c2ccccc2)cc1 [compound 23a, 1-Phenoxy-3-(phenyltelluro)propane]	(5.3 ± 0.4) × 10^−5 ΔA s^−1	1	–	(1.10±0.01)×10^−1 s^−1	10.7 ± 0.1
CCCCCC[Te]CCCOc1cc(COc2cc(CO)cc(OCc3cc(OCCC[Te]CCCCCC)cc(OCCC[Te]CCCCCC)c3)c2)cc(OCCC[Te]CCCCCC)c1 [20c, 3,5-Bis(3,5-bis[3-(n-hexyltelluro)propyloxy]benzyloxy)benzyl Alcohol]	(5.47 ± 0.07) × 10^−4 ΔA s^−1	11	(1.31 ± 0.01) × 10^2 μM min^−1	–	–
CCCCCC[Te]CCCOc1cc(CO)cc(OCCC[Te]CCCCCC)c1 [compound 9c, 3,5-Bis[3-(n-hexyltelluro)propyloxy]benzyl Alcohol]	(2.90 ± 0.06) × 10^−4- ΔA s^−1	5.8	(6.9 ± 0.1) × 10^1 μM min^−1	–	–
CN(C)c1ccc([Te]CCCOc2cc(CO)cc(OCCC[Te]c3ccc(N(C)C)cc3)c2OCCC[Te]c2ccc(N(C)C)cc2)cc1 [15b, 3,4,5-Tris[3-(4-dimethylaminophenyltelluro)propyloxy]benzyl Alcohol]	(3.15 ± 0.03) × 10^−4 ΔA s^−1	6.3	(7.49 ± 0.07) × 10^1 μM min^−1	–	–
CCCCCC[Te]CCCOc1cc(CO)cc(OCCC[Te]CCCCCC)c1OCCC[Te]CCCCCC [compound 15c, 3,4,5-Tris[3-(n-hexyltelluro)propyloxy]benzyl Alcohol]	(4.00 ± 0.05) × 10^−4 ΔA s^−1	7.9	(9.5 ± 0.1) × 10^1 μM min^−1	–	–
CN(C)c1ccc([Te]CCCOc2cc(COc3cc(CO)cc(OCc4cc(OCCC[Te]c5ccc(N(C)C)cc5)cc(OCCC[Te]c5ccc(N(C)C)cc5)c4)c3)cc(OCCC[Te]c3ccc(N(C)C)cc3)c2)cc1 [compound 20b, 3,5-Bis(3,5-bis[3-(4-dimethylaminophenyltelluro)propyloxy]benzyloxy)benzyl Alcohol]	(3.13 ± 0.05) × 10^−4 ΔA s^−1	6.3	(7.4 ± 0.1) × 10^1 μM min^−1	–	–
